pIC50: −log10 of the molar value.
What follows are compounds tested on Dirofilaria immitis microfilariae and 4th stage larvae (L4) (assay: Heartworm screen Dirofilaria immitis (DiMF and DiL4 assays)). Conditions: read-out: D. immitis Act class.
Assay type: cell-based
Method: Heartworm Screen Dirofilaria immitis (D. immitis)
(§1) Dirofilaria immitis, Microfilaria (DiMF) Assay. Compounds were dissolved and serially diluted in DMSO. Aliquots were spotted to the empty wells of assay plates. Media and microfilariae of Dirofilaria immitis were added to each well to dilute the test compounds to the desired concentrations. Assay plates were incubated for approximately 72 hours, and the larvae in each well were observed microscopically for drug effect. Microfilariae in each well were assessed subjectively for survival or paralysis, and results were reported as Minimum Effective Dose (MED).
as §1, with “L4 stage (DiL4)” for “Microfilaria (DiMF)”, “4th stage larvae (L4)” for “microfilariae”, “Larvae” for “Microfilariae”
Active and selective (DiL4 vs. DiMF potency) example compounds were subsequently evaluated in heartworm positive dog studies to correlate the in vitro selectivity profile with in vivo effects on circulating microfilariae.

`Cc1ccnc(Nc2nc(-c3cc(C)ccn3)cs2)c1` [Example 220, N,4-bis(4-methylpyridin-2-yl)thiazol-2-amine] and `Cc1ccnc(Nc2nc(-c3cc(Cl)ccn3)cs2)c1` [Example 223, 4-(4-chloropyridin-2-yl)-N-(4-methylpyridin-2-yl)thiazol-2-amine] cannot be ordered by pIC50: greater than 6.70 for the first, greater than 6.70 for the second.

`c1ccc(-c2csc(Nc3cc4[nH]ccc4cn3)n2)nc1` [Example 136, 4-(pyridin-2-yl)-N-(1H-pyrrolo [3,2-c]pyridin-6-yl)thiazol-2-amine] and `c1ccc(-c2csc(Nc3ccc4cc[nH]c4n3)n2)nc1` [Example 134, 4-(pyridin-2-yl)-N-(1H-pyrrolo [2,3-b]pyridin-6-yl)thiazol-2-amine] fall in the same range of pIC50: 5.30 to 6.30 for the first, 5.30 to 6.30 for the second.

First: COc1ccnc(-c2csc(Nc3ncc(C(F)(F)F)cc3N(C)C(C)=O)n2)c1 [Example 96, N-(2-(4-(4-methoxypyridin-2-yl)thiazol-2-ylamino)-5-(trifluoromethyl)pyridin-3-yl)-N-methylacetamide]
Second: CC(=O)N(C)c1cc(C(F)(F)F)cnc1Nc1nc(-c2cc(OC3COC3)ccn2)cs1 [Example 73, N-methyl-N-(2-(4-(4-(oxetan-3-yloxy)pyridin-2-yl)thiazol-2-ylamino)-5-(trifluoromethyl)pyridin-3-yl)acetamide]
The pIC50 of the first is higher: 6.30 to 6.70 for the first, 5.30 to 6.30 for the second.

`Cc1cnc(Nc2nc(-c3ccccn3)cs2)c(C)c1` [Example 124, N-(3,5-dimethyl-pyridin-2-yl)-4-(pyridin-2-yl)thiazol-2-amine] and `Cc1ccnc(-c2csc(Nc3ncccc3C)n2)c1` [Example 222, N-(3-methylpyridin-2-yl)-4-(4-methylpyridin-2-yl)thiazol-2-amine] cannot be ordered by pIC50: greater than 6.70 for the first, greater than 6.70 for the second.

First: Cc1cccnc1-c1csc(Nc2cc(-c3ccccc3)ccn2)n1 [Example 100, 4-(3-methylpyridin-2-yl)-N-(4-phenylpyridin-2-yl)thiazol-2-amine]
Second: Cc1ccnc(Nc2nc(-c3cc(-c4ccccc4)ccn3)cs2)c1 [Example 101, N-(4-methylpyridin-2-yl)-4-(4-phenylpyridin-2-yl)thiazol-2-amine]
The pIC50 of the first is lower: 6.30 to 6.70 for the first, greater than 6.70 for the second.

`Cc1ccnc(Nc2nc(-c3ccccn3)c(CCOC3CCC3)s2)c1` [Example 180, 5-(2-cyclobutoxy-ethyl)-N-(4-methylpyridin-2-yl)-4-(pyridin-2-yl)thiazol-2-amine] and `Cc1ccnc(Nc2nc(-c3ccccn3)c(COCC3CCC3)s2)c1` [Example 182, 5-((cyclobutyl-methoxy)methyl)-N-(4-methylpyridin-2-yl)-4-(pyridin-2-yl)thiazol-2-amine] cannot be ordered by pIC50: greater than 6.70 for the first, greater than 6.70 for the second.

First: CCOc1ccc(-c2csc(Nc3ccc(C(F)(F)F)cn3)n2)nc1 [Example 95, 4-(5-ethoxypyridin-2-yl)-N-(5-(trifluoromethyl)pyridin-2-yl)thiazol-2-amine]
Second: CCOc1ccc(-c2csc(Nc3ncc(C(F)(F)F)cc3C)n2)nc1 [Example 84, 4-(5-ethoxypyridin-2-yl)-N-(3-methyl-5-(trifluoromethyl)pyridin-2-yl)thiazol-2-amine]
The pIC50 of the first is higher: greater than 6.70 for the first, 6.30 to 6.70 for the second.

First: CCOc1ccc(-c2csc(Nc3ncc(F)cc3C)n2)nc1 [Example 79, 4-(5-ethoxypyridin-2-yl)-N-(5-fluoro-3-methylpyridin-2-yl)thiazol-2-amine]
Second: CCOc1ccc(-c2csc(Nc3ncc(C)cc3C)n2)nc1 [Example 88, N-(3,5-dimethylpyridin-2-yl)-4-(5-ethoxypyridin-2-yl)thiazol-2-amine]
The pIC50 of the first is lower: 6.30 to 6.70 for the first, greater than 6.70 for the second.

First: COc1ccnc(Nc2nc(-c3ccccn3)cs2)c1 [Example 121, N-(4-methoxypyridin-2-yl)-4-(pyridin-2-yl)thiazol-2-amine]
Second: COc1ccc(Nc2nc(-c3ccccn3)cs2)nc1 [Example 218, N-(5-methoxypyridin-2-yl)-4-(pyridin-2-yl)thiazol-2-amine]
The pIC50 of the first is higher: 6.30 to 6.70 for the first, 5.30 to 6.30 for the second. The first is the more potent here.

Compared with `CCc1sc(Nc2cc(C)ccn2)nc1-c1ccccn1` [Example 184, 5-ethyl-N-(4-methylpyridin-2-yl)-4-(pyridin-2-yl)thiazol-2-amine], `Cc1ccnc(Nc2nc(-c3ccccn3)c(C(C)(C)C)s2)c1` [Example 181, 5-tert-butyl-N-(4-methylpyridin-2-yl)-4-(pyridin-2-yl)thiazol-2-amine] is lower in pIC50: 6.30 to 6.70 for the first, 5.30 to 6.30 for the second.

First: c1ccc(-c2csc(Nc3cc4ccccc4cn3)n2)nc1 [Example 128, N-(isoquinolin-3-yl)-4-(pyridin-2-yl)thiazol-2-amine]
Second: c1ccc(-c2csc(Nc3cc(-c4cccc5ccccc45)ccn3)n2)nc1 [Example 175, N-(4-(naphthalen-1-yl)pyridin-2-yl)-4-(pyridin-2-yl)thiazol-2-amine]
The pIC50 of the first is lower: 6.30 to 6.70 for the first, greater than 6.70 for the second. The second is the more potent here.

Compared with `Cc1cccnc1Nc1nc(-c2ccc(Cl)cn2)cs1` [Example 94, 4-(5-chloropyridin-2-yl)-N-(3-methylpyridin-2-yl)thiazol-2-amine], `CSc1ccc(-c2csc(Nc3ncccc3C)n2)nc1` [Example 80, N-(3-methylpyridin-2-yl)-4-(5-(methylthio)pyridin-2-yl)thiazol-2-amine] is higher in pIC50: 6.30 to 6.70 for the first, greater than 6.70 for the second.

First: Cc1ccnc(-c2csc(Nc3ncccc3-c3ccccc3)n2)c1 [Example 99, 4-(4-methylpyridin-2-yl)-N-(3-phenylpyridin-2-yl)thiazol-2-amine]
Second: c1ccc(-c2cccnc2Nc2nc(-c3ccccn3)cs2)cc1 [Example 125, N-(3-phenylpyridin-2-yl)-4-(pyridin-2-yl)thiazol-2-amine]
The pIC50 of the first is higher: greater than 6.70 for the first, 5.30 to 6.30 for the second.

First: CCCc1ccnc(Nc2nc(-c3ccccn3)cs2)c1 [Example 172, N-(4-propylpyridin-2-yl)-4-(pyridin-2-yl)thiazol-2-amine]
Second: O=C(NC1CC1)c1ccnc(Nc2nc(-c3ccccn3)cs2)c1 [Example 170, N-cyclopropyl-2-(4-(pyridin-2-yl)thiazol-2-ylamino) isonicotinamide]
The pIC50 of the first is higher: greater than 6.70 for the first, 5.30 to 6.30 for the second.

First: Cc1ccnc(Nc2nc(-c3cccnc3)cs2)c1 [Example 226, N-(4-methylpyridin-2-yl)-4-(pyridin-3-yl)thiazol-2-amine]
Second: Cc1ccnc(Nc2nc(-c3ncccc3C#N)cs2)c1 [Example 92, 2-(2-(4-methylpyridin-2-ylamino)thiazol-4-yl)nicotinonitrile]
The pIC50 of the first is higher: 6.30 to 6.70 for the first, 5.30 to 6.30 for the second. The first is the more potent here.

`CCOc1cccnc1-c1csc(Nc2ncccc2C)n1` [Example 77, 4-(3-ethoxypyridin-2-yl)-N-(3-methylpyridin-2-yl)thiazol-2-amine] and `CCOc1cccnc1-c1csc(Nc2cc(C)ccn2)n1` [Example 72, 4-(3-ethoxypyridin-2-yl)-N-(4-methylpyridin-2-yl)thiazol-2-amine] cannot be ordered by pIC50: greater than 6.70 for the first, greater than 6.70 for the second.

First: CCOc1ccc(-c2csc(Nc3nc(C)ccc3C)n2)nc1 [Example 86, N-(3,6-dimethylpyridin-2-yl)-4-(5-ethoxypyridin-2-yl)thiazol-2-amine]
Second: CCOc1ccc(-c2csc(Nc3ncccc3C3CC3)n2)nc1 [Example 83, N-(3-cyclopropylpyridin-2-yl)-4-(5-ethoxypyridin-2-yl)thiazol-2-amine]
The pIC50 of the first is higher: 6.30 to 6.70 for the first, 5.30 to 6.30 for the second.

`FC(F)(F)c1ccc(Nc2nc(-c3ccccn3)cs2)nc1` [Example 217, 4-(pyridin-2-yl)-N-(5-(trifluoromethyl)pyridin-2-yl)thiazol-2-amine] and `Cc1cnc(Nc2nc(-c3ccccn3)cs2)cc1C(F)(F)F` [Example 129, N-(5-methyl-4-(trifluoro-methyl)pyridin-2-yl)-4-(pyridin-2-yl)thiazol-2-amine] cannot be ordered by pIC50: greater than 6.70 for the first, greater than 6.70 for the second.

`CC(=O)N(C)c1cc(C(F)(F)F)cnc1Nc1nc(-c2cc3c(cn2)N(C)CC3)cs1` [Example 76, N-methyl-N-(2-(4-(1-methyl-2,3-dihydro-1H-pyrrolo[2,3-c]pyridin-5-yl)thiazol-2-ylamino)-5-(trifluoromethyl)pyridin-3-yl)acetamide] and `CC(=O)N(C)c1cc(C(F)(F)F)cnc1Nc1nc(-c2ccccn2)cs1` [Example 212, N-methyl-N-(2-(4-(pyridin-2-yl)thiazol-2-ylamino)-5-(trifluoro-methyl)pyridin-3-yl) acetamide] fall in the same range of pIC50: 5.30 to 6.30 for the first, 5.30 to 6.30 for the second.

`Cc1ccnc(Nc2nc(-c3cc(OC4COC4)ccn3)cs2)c1` [Example 102, N-(4-methylpyridin-2-yl)-4-(4-(oxetan-3-yloxy)pyridin-2-yl)thiazol-2-amine] and `Cc1ccnc(Nc2nc(-c3cc(OC4CN(C)C4)ccn3)cs2)c1` [Example 98, 4-(4-(1-methylazetidin-3-yloxy)pyridin-2-yl)-N-(4-methylpyridin-2-yl)thiazol-2-amine] fall in the same range of pIC50: 5.30 to 6.30 for the first, 5.30 to 6.30 for the second.

Compared with `Cc1cccnc1Nc1nc(-c2ccc(OC3CC3)cn2)cs1` [Example 48], `CCOc1cnc(-c2csc(Nc3ncccc3C)n2)c(C)c1` [Example 75, 4-(5-ethoxy-3-methylpyridin-2-yl)-N-(3-methylpyridin-2-yl)thiazol-2-amine] is higher in pIC50: 6.30 to 6.70 for the first, greater than 6.70 for the second. The second is the more potent here.

`COc1ccc(-c2csc(Nc3cc(C)ccn3)n2)nc1` [Example 225, 4-(5-methoxypyridin-2-yl)-N-(4-methylpyridin-2-yl)thiazol-2-amine] and `CCOc1ccnc(-c2csc(Nc3cc(C)ccn3)n2)c1` [Example 224, 4-(4-ethoxypyridin-2-yl)-N-(4-methylpyridin-2-yl)thiazol-2-amine] fall in the same range of pIC50: 6.30 to 6.70 for the first, 6.30 to 6.70 for the second.

First: COc1cccnc1-c1csc(Nc2cc(C)ccn2)n1 [Example 7]
Second: CCOc1cnc(-c2csc(Nc3cc(C)ccn3)n2)c(C)c1 [Example 74, 4-(5-ethoxy-3-methylpyridin-2-yl)-N-(4-methylpyridin-2-yl)thiazol-2-amine]
The pIC50 of the first is lower: 6.30 to 6.70 for the first, greater than 6.70 for the second. The second is the more potent here.
